The term IC50 denotes the concentration needed to halve the response being measured. A high value points to weaker potency. The inhibition is how much of the control response was suppressed.

The source made the active and inactive calls. The calls are words filed in the database; no cut-off is given here.

Assay [1] addresses T1, Prostaglandin G/H synthase 1 (Homo sapiens, UniProt P23219). Put plainly: Inhibition of COX-1 (unknown origin).
Assay [2] has as its target T2, Prostaglandin G/H synthase 2 (Homo sapiens, UniProt P35354).
T2 sequence (P35354 whole entry): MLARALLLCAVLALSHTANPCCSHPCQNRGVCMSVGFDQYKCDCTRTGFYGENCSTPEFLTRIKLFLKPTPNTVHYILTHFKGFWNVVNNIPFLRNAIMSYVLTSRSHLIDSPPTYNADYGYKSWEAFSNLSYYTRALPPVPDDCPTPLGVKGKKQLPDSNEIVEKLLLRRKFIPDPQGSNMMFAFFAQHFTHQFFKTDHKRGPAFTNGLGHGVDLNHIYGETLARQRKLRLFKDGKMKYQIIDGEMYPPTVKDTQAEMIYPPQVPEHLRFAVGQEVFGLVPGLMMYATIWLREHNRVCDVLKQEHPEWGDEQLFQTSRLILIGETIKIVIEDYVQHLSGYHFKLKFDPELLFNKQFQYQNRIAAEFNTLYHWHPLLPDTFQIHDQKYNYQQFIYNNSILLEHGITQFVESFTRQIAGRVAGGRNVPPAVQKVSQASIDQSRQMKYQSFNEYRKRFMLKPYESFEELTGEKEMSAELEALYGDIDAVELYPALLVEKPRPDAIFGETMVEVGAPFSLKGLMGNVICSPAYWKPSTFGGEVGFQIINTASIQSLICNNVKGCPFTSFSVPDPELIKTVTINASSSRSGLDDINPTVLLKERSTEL
Put plainly: Inhibition of Homo sapiens (human) cyclooxygenase-2.

The target of assay [3] is T3, Prostaglandin G/H synthase 2 (Homo sapiens) (UniProt P35354).
T3 sequence (whole entry): T2 sequence (P35354 whole entry)
Put plainly: Inhibition of cyclooxygenase-2 in Homo sapiens (human) whole blood assessed as LPS-induced PGE2 production at 100 uM incubated 15 min prior to LPS challenge measured after 24 hr by enzyme immunoassay.

Assay [4] has as its target T1, Prostaglandin G/H synthase 1. Put plainly: Inhibition of cyclooxygenase-1 in Homo sapiens (human) whole blood assessed as thromboxane B2 production at 100 uM after 1 hr by enzyme immunoassay.
In assay [5] the target is T3, Prostaglandin G/H synthase 2 (Homo sapiens). Put plainly: Inhibition of cyclooxygenase-2 in Homo sapiens (human) whole blood assessed as LPS-induced PGE2 production at 10 uM incubated 15 min prior to LPS challenge measured after 24 hr by enzyme immunoassay.
Assay [6] concerns the target T1, Prostaglandin G/H synthase 1. Put plainly: Inhibition of cyclooxygenase-1 in Homo sapiens (human) whole blood assessed as thromboxane B2 production at 10 uM after 1 hr by enzyme immunoassay.

T1 sequence (P23219 whole entry): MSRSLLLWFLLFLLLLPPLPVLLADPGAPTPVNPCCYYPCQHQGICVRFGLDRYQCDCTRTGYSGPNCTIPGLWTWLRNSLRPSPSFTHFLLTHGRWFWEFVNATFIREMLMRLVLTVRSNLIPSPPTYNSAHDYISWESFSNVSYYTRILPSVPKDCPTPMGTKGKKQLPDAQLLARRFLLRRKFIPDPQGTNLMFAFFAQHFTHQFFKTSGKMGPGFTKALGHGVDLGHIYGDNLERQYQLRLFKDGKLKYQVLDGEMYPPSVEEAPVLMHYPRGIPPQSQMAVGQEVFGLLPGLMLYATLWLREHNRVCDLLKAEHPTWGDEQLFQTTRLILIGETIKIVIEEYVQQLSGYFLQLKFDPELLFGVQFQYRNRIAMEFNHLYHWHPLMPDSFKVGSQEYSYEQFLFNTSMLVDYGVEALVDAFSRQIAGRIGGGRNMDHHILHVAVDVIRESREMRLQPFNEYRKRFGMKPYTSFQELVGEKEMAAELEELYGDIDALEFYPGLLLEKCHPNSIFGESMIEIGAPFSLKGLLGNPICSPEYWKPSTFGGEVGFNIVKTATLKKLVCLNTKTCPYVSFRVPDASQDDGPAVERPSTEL

With `Cc1c(CC(=O)O)cc(-c2ccccc2)cc1-c1ccccc1`, the IC50 in assay [1] stood at 17 µM; in assay [2] it was 120 µM.
Regarding `CCOc1ccc(-c2cc(N)cc(-c3ccc(OCC)cc3)c2)cc1`, the inhibition entry in assay [3], in assay [4], in assay [5] and in assay [6] was “inactive” throughout.
As for `Cc1ccc(-c2cc(N)cc(-c3ccccc3)c2)cc1`, the inhibition in assay [3] came out at 95%; in assay [4] it was 96%; in assay [5], 49%; in assay [6] it was 46%.
Turning to `Nc1cc(-c2ccccc2)cc(-c2ccc(Cl)cc2)c1`, the inhibition in assay [3] is 98%; in assay [4], 97%; in assay [5] it was 85%; in assay [6], 63%.
In the case of `Nc1cc(-c2ccccc2)cc(-c2ccccc2)c1`, the inhibition in assay [3] was found to be 92%; in assay [4], 98%; in assay [5] it was 68%; in assay [6], 56%.
The corresponding values for `CSc1ccc(-c2cc(N)cc(-c3ccccc3)c2)cc1` are “inactive”, 92%, “inactive” and 29%.
The corresponding values for `COc1ccc(-c2cc(N)cc(-c3ccccc3)c2)cc1` are 78%, 92%, “inactive” and “inactive”.
The corresponding values for `CS(=O)(=O)c1ccc(-c2cc(N)cc(-c3ccccc3)c2)cc1` are “inactive”, 85%, “inactive” and 23%.
Turning to `Nc1cc(-c2ccc(Cl)cc2)cc(-c2ccc(Cl)cc2)c1`, the inhibition in assay [3] came to 99%; in assay [4], 93%; in assay [5] it was 76%; in assay [6], 19%.
For `Cc1ccc(-c2cc(N)cc(-c3ccc(C)cc3)c2)cc1`, in that order: 86%, 87%, 57% and 27%.
The corresponding values for `CCOc1ccc(-c2cc(N)cc(-c3ccccc3)c2)cc1` are “inactive”, 88%, “inactive” and 20%.

For the origin of these results see ChEMBL document CHEMBL3044614, “Synthesis and pharmacological evaluation of m-terphenyl amines as cyclooxygenase inhibitors” (Med Chem Res, 2007).
